According to ChEMBL document CHEMBL1629667, “Activities of dalbavancin against a worldwide collection of 81,673 gram-positive bacterial isolates” (2009):
In brackets after ≈: the same amount, converted by molar mass.

Columns and labels:
Assay type in all cases: functional
Staphylococcus [1] = assay: Antimicrobial activity against Oxacillin-resistant coagulase-negative Staphylococcus assessed as percent resistant isolate by broth microdilution method
Enterococcus faecalis [2] = assay: Antimicrobial activity against Enterococcus faecalis VanB assessed as growth inhibition at 0.06 ug/ml by broth microdilution method
[3] = Antimicrobial activity against Beta-hemolytic Streptococcus sp. 'group C' assessed as growth inhibition at =<[…] ug/ml by broth microdilution method
[4] = system: Streptococcus sp. 'group A'; assay: Antimicrobial activity against Beta-hemolytic Streptococcus sp. 'group A' assessed as growth inhibition at 0.12 ug/ml by broth microdilution method
Staphylococcus [5] = assay: Antimicrobial activity against Oxacillin-susceptible coagulase-negative Staphylococcus assessed as percent susceptible isolate by broth microdilution method
[6] = Antimicrobial activity against Beta-hemolytic Streptococcus sp. 'group G' assessed as growth inhibition at 0.12 ug/ml by broth microdilution method
Staphylococcus [7] = assay: Antimicrobial activity against Oxacillin-susceptible coagulase-negative Staphylococcus by broth microdilution method
Enterococcus faecalis [8] = assay: Antimicrobial activity against Enterococcus faecalis VanA assessed as growth inhibition at 4 ug/ml by broth microdilution method
Enterococcus faecalis [9] = assay: Antimicrobial activity against Enterococcus faecalis VanA assessed as growth inhibition at 2 ug/ml by broth microdilution method
Enterococcus faecium [10] = assay: Antimicrobial activity against Enterococcus faecium VanB assessed as growth inhibition at 2 ug/ml by broth microdilution method
Enterococcus faecalis [11] = assay: Antimicrobial activity against Enterococcus faecalis VanA assessed as growth inhibition at 0.06 ug/ml by broth microdilution method
[12] = Antimicrobial activity against Beta-hemolytic Streptococcus sp. 'group C' assessed as growth inhibition at 0.06 ug/ml by broth microdilution method
Enterococcus faecium [13] = assay: Antimicrobial activity against Enterococcus faecium VanB assessed as growth inhibition at 0.5 ug/ml by broth microdilution method
Streptococcus = assay: Antimicrobial activity against viridans group Streptococcus by broth microdilution method
[14] = system: Streptococcus sp. 'group B'; assay: Antimicrobial activity against Beta-hemolytic Streptococcus sp. 'group B' assessed as growth inhibition at 0.25 ug/ml by broth microdilution method

Which Activity (Staphylococcus [1]) does the source give for `CN[C@H](CC(C)C)C(=O)N[C@H]1C(=O)N[C@@H](CC(N)=O)C(=O)N[C@H]2C(=O)N[C@H]3C(=O)N[C@H](C(=O)N[C@H](C(=O)O)c4cc(O)cc(O)c4-c4cc3ccc4O)[C@H](O)c3ccc(c(Cl)c3)Oc3cc2cc(c3O[C@@H]2O[C@H](CO)[C@@H](O)[C@H](O)[C@H]2O[C@H]2C[C@](C)(N)[C@H](O)[C@H](C)O2)Oc2ccc(cc2Cl)[C@H]1O` [VANCOMYCIN] here?
Its Activity is 0%.

And the inhibition at 0.06 µg/mL (Enterococcus faecalis [2])?
The inhibition at 0.06 µg/mL was 33.3%.

And the “inhibition (INH)” value [3]?
The value was 99.4%.

What about the inhibition at 0.12 µg/mL [4] of the same molecule?
Its inhibition at 0.12 µg/mL is greater than 99.9%.

And the Activity (Staphylococcus [5])?
Its Activity is 100%.

What about the inhibition at 0.12 µg/mL [6] of the same molecule?
Its inhibition at 0.12 µg/mL is 100%.

What about the MIC50 (Staphylococcus [7]) of the same molecule?
Its MIC50 is 1 µg/mL (≈ 0.69 µM).

And the MIC90 (Staphylococcus [7])?
Its MIC90 is 2 µg/mL (≈ 1.38 µM).

And the inhibition at 4 µg/mL (Enterococcus faecalis [8])?
The inhibition at 4 µg/mL was 14.8%.

What about the inhibition at 2 µg/mL (Enterococcus faecalis [9]) of the same molecule?
The inhibition at 2 µg/mL was 7.4%.

And the inhibition at 2 µg/mL (Enterococcus faecium [10])?
Its inhibition at 2 µg/mL is 94%.

And the inhibition at 0.06 µg/mL (Enterococcus faecalis [11])?
The inhibition at 0.06 µg/mL was 0.9%.

And the inhibition at 0.06 µg/mL [12]?
The inhibition at 0.06 µg/mL was 100%.

And the inhibition at 0.5 µg/mL (Enterococcus faecium [13])?
The inhibition at 0.5 µg/mL was 85.1%.

And the MIC50 (Streptococcus)?
Its MIC50 is 0.5 µg/mL (≈ 0.345 µM).

And the MIC90 (Streptococcus)?
Its MIC90 is 1 µg/mL (≈ 0.69 µM).

And the inhibition at 0.25 µg/mL [14]?
Its inhibition at 0.25 µg/mL is 100%.
